Source: PubChem BioAssay (NCI)
Several values for one entry are separate records, joined by “and”; a condition that tells them apart may be missing. Identical values can stand only once.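 Exposure lasted 48 hours, with cells grown in 96-well plates and compounds tested at five concentrations. At the GI50, growth is halved. TGI: concentration producing complete growth inhibition.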

Experiments:
Experiment in all cases: growth of human tumour cells (NCI), 48 h
HL-60(TB) leukemia = test system: HL-60(TB) leukemia
RXF 393 renal = test system: RXF 393 renal
SNB-75 CNS = test system: SNB-75 CNS
TK-10 renal = test system: TK-10 renal
COLO 205 colon = test system: COLO 205 colon
SF-295 CNS = test system: SF-295 CNS
SK-OV-3 ovarian = test system: SK-OV-3 ovarian
UACC-257 melanoma = test system: UACC-257 melanoma
ACHN renal = test system: ACHN renal
KM12 colon = test system: KM12 colon

Row | SMILES | TGI (HL-60(TB) leukemia) [µM] | TGI (RXF 393 renal) [µM] | TGI (SNB-75 CNS) | TGI (TK-10 renal) [µM] | TGI (COLO 205 colon) [µM] | TGI (SF-295 CNS) | TGI (SK-OV-3 ovarian) [µM] | TGI (UACC-257 melanoma) | TGI (ACHN renal) [µM] | TGI (KM12 colon) | GI50 (SNB-75 CNS) [µM] | GI50 (COLO 205 colon) [µM] | GI50 (SF-295 CNS) [µM] | GI50 (UACC-257 melanoma) [µM] | GI50 (KM12 colon) [µM]
1 | COc1ccc(Cc2nc3cc(Cl)ccc3o2)cc1 | > 100 | 70.2 | 59.1 µM | > 100 | > 100 | > 100 µM | > 100 | 70.6 µM | > 100 | > 100 µM | – | – | – | – | –
2 | CCOc1cc(NC(C)=O)ccc1C(=O)N/N=C/c1ccco1 | > 100 | > 100 | > 100 µM | > 100 | > 100 | > 100 µM | > 100 | > 100 µM | > 100 | > 100 µM | – | – | – | – | –
3 | C=C1CCCC(C)(C)[C@@H]1CC/C(C)=C/Cn1c2cccc(=O)c-2nc2ccccc21 | 0.354 | – | 4.54 µM and 5.04 µM | – | – | 26.9 µM and 4.16 µM | 10.7 | 9.02 µM and 4.68 µM | – | 45.4 µM and 10.4 µM | 2.09 | 23.8 | 3.93 | 2.83 | 7.96
4 | Cc1ccc2c(=O)c(-c3nnsn3)c[nH]c2n1 | > 100 | > 100 | – | > 100 | > 100 | > 100 µM | – | > 100 µM | > 100 | > 100 µM | – | – | – | – | –
5 | COc1cc(/C=C2\N=C(c3ccccc3)N(c3nc4c(Cl)cc(Cl)cc4s3)C2=O)ccc1O | 39.7 | 49.1 | 75 µM | > 100 | > 100 | > 100 µM | > 100 | > 100 µM | 82.2 | > 100 µM | – | – | – | – | –
6 | CC(Br)C(=O)c1ccc2cc(Br)c3ccccc3c2c1 (stereo unspecified) | 37.5 | 30.2 | 29 µM | 33.1 | – | 31.4 µM | 30.8 | 31.5 µM | 31.4 | 32.5 µM | – | – | – | – | –
7 | Clc1ccc(NCc2nnc(COc3ccc(OCc4nnc(CNc5ccc(Cl)cc5)o4)c(Cl)c3)o2)cc1 | 27 | > 100 | – | > 100 | 25.9 | > 100 µM | – | > 100 µM | > 100 | > 100 µM | – | – | – | – | –
8 | NC(CCc1ccccc1)(C(=O)O)c1ccccc1 (stereo unspecified) | – | > 100 | > 100 µM | > 100 | – | > 100 µM | – | > 100 µM | > 100 | > 100 µM | – | – | – | – | –
9 | O=P(O)(O)OP(=O)(O)O | > 100 | > 100 | > 100 µM | > 100 | > 100 | – | > 100 | > 100 µM | > 100 | > 100 µM | – | – | – | – | –
10 | O=C(N/N=C\c1ccc([N+](=O)[O-])cc1)Nc1ccccc1 | > 100 | > 100 | > 100 µM | > 100 | > 100 | > 100 µM | > 100 | > 100 µM | – | > 100 µM | – | – | – | – | –
